Experiments:
[1] = biological target: T1, BRAF V600E (Homo sapiens, UniProt P15056, V600E); experiment: Cellular assay of target protein degradation, T-Rex 293 cells stably transfected with HA-BRAF_V600E (HA immunofluorescence, high content imaging); type: cell-based; settings: T-Rex 293 HA-BRAF V600E; for DC50: half maximal degradation, read-out: BRaf V600E DC50; for Dmax: maximum degradation observed
T1 construct: expressed in transfected cells
Procedure, shortened: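 Cells are plated with 1 ng/mL doxycycline and grown 24 h. Compound is then added (final 1 μM–0.1 nM, 0.1% DMSO) for another 24 h at 37 °C, followed by fixing, HA immunostaining and imaging to obtain DC50 and Dmax.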

[2] = biological target: T2, BRAF G466V (Homo sapiens, UniProt P15056, G466V); experiment: Cellular assay of target protein degradation, T-Rex 293 cells stably transfected with HA-BRAF G466V (HA immunofluorescence, high content imaging); type: cell-based; settings: T-Rex 293 HA-BRAF G466V; for DC50: half maximal degradation, read-out: BRaf G466V DC50; for Dmax: maximum degradation observed
T2 construct: expressed in transfected cells
T2 sequence (P15056 whole entry G466V): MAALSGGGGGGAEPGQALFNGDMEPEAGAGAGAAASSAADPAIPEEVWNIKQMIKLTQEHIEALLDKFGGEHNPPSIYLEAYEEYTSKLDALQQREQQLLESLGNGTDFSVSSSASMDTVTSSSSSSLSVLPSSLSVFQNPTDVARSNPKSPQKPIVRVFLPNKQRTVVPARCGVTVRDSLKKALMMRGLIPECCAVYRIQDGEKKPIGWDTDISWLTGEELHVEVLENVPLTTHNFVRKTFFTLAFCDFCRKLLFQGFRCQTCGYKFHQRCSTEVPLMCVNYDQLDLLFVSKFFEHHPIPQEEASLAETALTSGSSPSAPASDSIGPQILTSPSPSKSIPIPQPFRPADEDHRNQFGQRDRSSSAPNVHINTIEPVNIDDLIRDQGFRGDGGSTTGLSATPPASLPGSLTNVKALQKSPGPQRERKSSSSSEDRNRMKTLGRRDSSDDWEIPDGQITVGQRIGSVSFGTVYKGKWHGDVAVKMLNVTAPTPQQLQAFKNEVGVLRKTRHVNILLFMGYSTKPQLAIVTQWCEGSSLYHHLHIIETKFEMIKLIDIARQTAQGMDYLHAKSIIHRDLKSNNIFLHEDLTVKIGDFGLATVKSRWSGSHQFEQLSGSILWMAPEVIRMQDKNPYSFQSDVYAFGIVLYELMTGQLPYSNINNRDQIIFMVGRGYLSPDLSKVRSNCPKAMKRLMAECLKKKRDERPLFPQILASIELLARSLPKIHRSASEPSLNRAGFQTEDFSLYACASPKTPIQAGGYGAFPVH
Procedure, shortened: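 Read-out is HA immunofluorescence by high content imaging, with Hoechst and phalloidin co-staining, giving DC50 and Dmax as a percentage of control. Compound exposure lasts 24 hours at 37° C over 30 nM to 3 pM in 0.1% DMSO, with doxycycline-induced HA-BRAF G466V.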

T1 sequence (P15056 whole entry V600E): as the sequence (P15056 whole entry G466V) above, with V466G, V600E counted along it

Row | SMILES | DC50 [1] [nM] | Dmax [1] [%] | DC50 [2] [nM] | Dmax [2] [%]
1 | COc1ccc(NS(=O)(=O)N2CC[C@@H](F)C2)c(OC)c1C(=O)c1c[nH]c2ncc(-c3ccc(N4CCC(CN5CCC(c6ccc7c(c6)CN([C@H]6CCC(=O)NC6=O)C7=O)CC5)CC4)cc3)cc12 [Compound 274, (3R)-N-{3-[5-(4-{4-[(4-{2-[(3S)-2,6-dioxopiperidin-3-yl]-1-oxo-2,3-dihydro-1H-isoindol-5-yl}piperidin-1-yl)methyl]piperidin-1-yl}phenyl)-1H-pyrrolo [2,3-b]pyridine-3-carbonyl]-2,4-dimethoxyphenyl}-3-fluoropyrrolidine-1-sulfonamide] | > 500 |  | > 30 | 
2 | O=C1CC[C@H](NC(=O)N2CCCc3c(N4CC5(CN(CCc6ccc(-c7cnc8[nH]cc(C(=O)c9c(F)ccc(NS(=O)(=O)N%10CC[C@@H](F)C%10)c9F)c8c7)cc6)C5)C4)ccnc32)C(=O)N1 [Compound 379, 5-{6-[2-(4-{3-[2,6-difluoro-3-({[(3R)-3-fluoropyrrolidin-1-yl]sulfonyl}amino)benzoyl]-1H-pyrrolo[2,3-b]pyridin-5-yl}phenyl)ethyl]-2,6-diazaspiro[3.3]heptan-2-yl}-N-[(3S)-2,6-dioxopiperidin-3-yl]-1,2,3,4-tetrahydro-1,8-naphthyridine-1-carboxamide] | 50 to 500 | 35 to 70 | 1 to 10 | 35 to 70
3 | O=C1CCC(N2Cc3cc(CCCOCC4CCN(c5ccc(-c6cnc7[nH]cc(C(=O)c8c(F)ccc(NS(=O)(=O)N9CC[C@@H](F)C9)c8F)c7c6)cc5)CC4)ccc3C2=O)C(=O)N1 (stereo partly drawn) [Compound 294, (3R)-N-[3-(5-{4-[4-({3-[2-(2,6-dioxopiperidin-3-yl)-1-oxo-2,3-dihydro-1H-isoindol-5-yl]propoxy}methyl)piperidin-1-yl]phenyl}-1H-pyrrolo[2,3-b]pyridine-3-carbonyl)-2,4-difluorophenyl]-3-fluoropyrrolidine-1-sulfonamide] | 50 to 500 | 35 to 70 | 1 to 10 | 35 to 70
4 | O=C1CC[C@H](NC(=O)c2ccc(N3CCN(CCN4CCN(c5ccc(-c6cnc7[nH]cc(C(=O)c8c(F)ccc(NS(=O)(=O)N9CC[C@@H](F)C9)c8F)c7c6)cc5)CC4)CC3)cc2F)C(=O)N1 [Compound 377, 4-(4-{2-[4-(4-{3-[2,6-difluoro-3-({[(3R)-3-fluoropyrrolidin-1-yl]sulfonyl}amino)benzoyl]-1H-pyrrolo[2,3-b]pyridin-5-yl}phenyl)piperazin-1-yl]ethyl}piperazin-1-yl)-N-[(3S)-2,6-dioxopiperidin-3-yl]-2-fluorobenzamide] | 5 to 50 | 35 to 70 | 1 to 10 | 35 to 70
5 | O=C1CC[C@H](NC(=O)c2ccc(N3CCC(CN4CC5(C4)CN(c4ccc(-c6cnc7[nH]cc(C(=O)c8c(F)ccc(NS(=O)(=O)N9CC[C@@H](F)C9)c8F)c7c6)cc4)C5)CC3)cn2)C(=O)N1 [Compound 353, 5-(4-{[6-(4-{3-[2,6-difluoro-3-({[(3R)-3-fluoropyrrolidin-1-yl]sulfonyl}amino)benzoyl]-1H-pyrrolo[2,3-b]pyridin-5-yl}phenyl)-2,6-diazaspiro[3.3]heptan-2-yl]methyl}piperidin-1-yl)-N-[(3S)-2,6-dioxopiperidin-3-yl]pyridine-2-carboxamide] | 5 to 50 | 35 to 70 | 1 to 10 | 35 to 70

Further lines, results first:

Row | DC50 [1] [nM] | Dmax [1] [%] | DC50 [2] [nM] | Dmax [2] [%] | SMILES
6 | 5 to 50 | 35 to 70 | 10 to 30 | > 70 | O=C1CCC(N2Cc3cc(C4CCN(CC[C@H]5CCN(c6ccc(-c7cnc8[nH]cc(C(=O)c9c(F)ccc(NS(=O)(=O)N%10CC[C@@H](F)C%10)c9F)c8c7)cc6)C5)CC4)ccc3C2=O)C(=O)N1 (stereo partly drawn) [Compound 217, (3R)-N-[3-(5-{4-[(3S)-3-(2-{4-[2-(2,6-dioxopiperidin-3-yl)-1-oxo-2,3-dihydro-1H-isoindol-5-yl]piperidin-1-yl}ethyl)pyrrolidin-1-yl]phenyl}-1H-pyrrolo [2,3-b]pyridine-3-carbonyl)-2,4-difluorophenyl]-3-fluoropyrrolidine-1-sulfonamide]
7 | 5 to 50 | 35 to 70 | < 1 | 35 to 70 | COc1cc(C2CCN(CC3CC4(C3)CN(c3ccc(-c5cnc6[nH]cc(C(=O)c7c(F)ccc(NS(=O)(=O)N8CC[C@@H](F)C8)c7F)c6c5)cc3)C4)CC2)cc2c1C(=O)N(C1CCC(=O)NC1=O)C2 (stereo partly drawn) [Compound 54, (3R)-N-[3-(5-{4-[6-({4-[2-(2,6-dioxopiperidin-3-yl)-7-methoxy-1-oxo-2,3-dihydro-1H-isoindol-5-yl]piperidin-1-yl}methyl)-2-azaspiro[3.3]heptan-2-yl]phenyl}-1H-pyrrolo[2,3-b]pyridine-3-carbonyl)-2,4-difluorophenyl]-3-fluoropyrrolidine-1-sulfonamide]
8 | 5 to 50 | 35 to 70 | 1 to 10 | > 70 | O=C1CCC(N2Cc3cc(C4CCN(CC5CCN(c6ccc(-c7cnc8[nH]cc(C(=O)c9c(F)ccc(NS(=O)(=O)N%10CC[C@@H](F)C%10)c9F)c8c7)cc6)CC5)CC4)c(F)cc3C2=O)C(=O)N1 (stereo partly drawn) [Compound 157, (3R)-N-[3-(5-{4-[4-({4-[2-(2,6-dioxopiperidin-3-yl)-6-fluoro-1-oxo-2,3-dihydro-1H-isoindol-5-yl]piperidin-1-yl}methyl)piperidin-1-yl]phenyl}-1H-pyrrolo[2,3-b]pyridine-3-carbonyl)-2,4-difluorophenyl]-3-fluoropyrrolidine-1-sulfonamide]

Reference: US12180193B2, “Accelerating fibrosarcoma protein degrading compounds and associated methods of use” (Arvinas Operations, Inc., priority 2020, dated 2024)
